Results as given in patent publication US20110269759A1, “PYRIMIDINE COMPOUNDS AS DELTA OPIOID RECEPTOR MODULATORS” (priority 2009, published 2011).
Like-named read-outs stand apart in the source and are kept apart here.

What was measured:
Delta Opioid Receptor [1] = target: T1, Delta Opioid Receptor (Rattus norvegicus, UniProt P33533); experiment: Rat brain delta opioid receptor binding assay ([3H]DPDPE or [3H]naltrindole)
T1 construct: the forebrains were homogenized in Tris buffer in a Teflon®-glass homogenizer; from tissue; host or cells: forebrain of male Wistar rats, particulate membrane preparation
T1 sequence (P33533 whole entry): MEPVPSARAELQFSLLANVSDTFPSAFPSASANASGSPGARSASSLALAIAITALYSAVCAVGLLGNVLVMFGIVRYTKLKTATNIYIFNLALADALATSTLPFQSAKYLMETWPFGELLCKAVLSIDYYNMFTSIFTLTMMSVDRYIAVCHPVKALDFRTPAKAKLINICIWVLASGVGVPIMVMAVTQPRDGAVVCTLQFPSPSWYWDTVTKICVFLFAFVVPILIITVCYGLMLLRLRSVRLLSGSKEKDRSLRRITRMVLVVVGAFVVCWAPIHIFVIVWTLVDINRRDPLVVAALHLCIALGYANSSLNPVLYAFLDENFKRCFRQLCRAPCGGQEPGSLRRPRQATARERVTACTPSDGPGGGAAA

Mu Opioid Receptor = target: T2, Mu Opioid Receptor (Rattus norvegicus, UniProt P33535); experiment: Rat brain mu opioid receptor binding assay ([3H]DAMGO)
T2 construct: the forebrains were homogenized in Tris buffer in a Teflon®-glass homogenizer; from tissue; host or cells: forebrain of male Wistar rats, particulate membrane preparation
T2 sequence (P33535 whole entry): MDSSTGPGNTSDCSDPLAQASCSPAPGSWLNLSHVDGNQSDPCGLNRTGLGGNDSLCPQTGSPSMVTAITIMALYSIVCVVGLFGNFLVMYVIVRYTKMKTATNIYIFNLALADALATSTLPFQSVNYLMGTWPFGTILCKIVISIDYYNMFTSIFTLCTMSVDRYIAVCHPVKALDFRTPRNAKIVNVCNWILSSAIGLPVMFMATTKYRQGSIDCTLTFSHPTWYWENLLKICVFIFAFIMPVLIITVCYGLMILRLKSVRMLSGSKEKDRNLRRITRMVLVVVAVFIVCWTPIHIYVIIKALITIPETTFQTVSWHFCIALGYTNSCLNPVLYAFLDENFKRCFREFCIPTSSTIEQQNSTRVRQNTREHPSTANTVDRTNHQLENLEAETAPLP

mice = experiment: Mouse Graded Abdominal Irritant Test (GrAIT); format: in vivo; conditions: 10% Solutol, 30 min pretreatment
Description: Test compound or vehicle was administered s.c. or p.o. to mice. Following the pretreatment time, an i.p. injection of 0.6% of acetic acid in 0.5 mL was administered. Five min after acetic acid administration, mice were placed into clear chambers and were continuously observed for 5 min. Behavioral responses including twisting and elongation of the body that extended through the hindlimbs were counted and averaged for the group of animals over the observation period.

δ-opioid receptor [2] = target: T3, δ-opioid receptor (Mus musculus, UniProt P32300); experiment: [35S]GTPγS δ-opioid receptor functional assay (EC50, relative efficacy, % inhibition); format: biochemical; set-up: NG108-15 cell membranes were purchased from Applied Cell Sciences (Rockville, Md.); conditions: for inhibition at 10 µM: read-out: GTPγS δ-opioid receptor % Inh @10 μM
T3 sequence (P32300 whole entry): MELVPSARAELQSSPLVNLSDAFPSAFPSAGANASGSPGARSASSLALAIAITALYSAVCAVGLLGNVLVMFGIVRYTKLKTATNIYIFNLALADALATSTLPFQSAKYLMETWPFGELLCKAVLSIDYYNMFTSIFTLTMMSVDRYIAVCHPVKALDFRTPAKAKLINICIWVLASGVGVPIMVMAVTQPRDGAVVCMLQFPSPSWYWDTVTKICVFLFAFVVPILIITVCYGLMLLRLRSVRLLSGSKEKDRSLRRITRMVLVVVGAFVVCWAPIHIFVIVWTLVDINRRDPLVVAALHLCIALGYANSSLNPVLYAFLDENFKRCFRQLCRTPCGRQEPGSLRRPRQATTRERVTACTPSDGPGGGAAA

δ-opioid receptor [3] = target: T3, δ-opioid receptor; experiment: [35S]GTPγS binding assay in NG108-15 cell membranes (delta opioid functional assay), 200 nM screen; format: biochemical; set-up: NG108-15 cell membranes were purchased from Applied Cell Sciences (Rockville, Md.); host or cells: NG108-15 cell membranes (purchased); conditions: 200 nM compound, relative to calculated max of SNC80 dose response
Delta Opioid Receptor [4] = target: T4, Delta Opioid Receptor (Mus musculus, UniProt P32300); experiment: NG108-15, 24-well delta opioid receptor binding assay ([3H]naltrindole)
T4 construct: NG108-15 cell membranes were purchased from Applied Cell Sciences (Rockville, Md.); host or cells: NG108-15 cell membranes (purchased)
T4 sequence (P32300 whole entry): as above

[5] = rat forebrain membranes, 0.25 nM [3H]naltrindole, read-out: δ-binding (Naltrindole ligand) Ki
[6] = NG108-15 cell membranes, ~0.2 nM [3H]naltrindole, read-out: δ-binding NG108 cell membrane Ki

| Structure (SMILES) | Ki (Delta Opioid Receptor [1]) [nM] | Ki (Mu Opioid Receptor) [nM] | EC50 (δ-opioid receptor [2]) [nM] | GTPγS δ-opioid receptor Rel Efficacy (δ-opioid receptor [2]) | inhibition at 10 µM (δ-opioid receptor [2]) [%] | GTPγS δ-RelEfficacy @200 nM (δ-opioid receptor [3]) | other results |
| --- | --- | --- | --- | --- | --- | --- | --- |
| CCN(CC)C(=O)/C=C/c1ccc(NC[C@@H]2CCCN2)c(Oc2ccc(OC)cc2)c1 [Cpd 1, (2E)-N,N-Diethyl-3-[3-(4-methoxyphenoxy)-4-{[(2S)-pyrrolidin-2-ylmethyl]amino}phenyl]prop-2-enamide] | 6.08 | 3370 | 109 | 0.8328 | 2.26 | – | # abdominal stretches (cpd) (mice; 30 mg/kg s.c.): 10.9 |
| CCN(CC)C(=O)c1ccc(NC[C@@H]2CCCN2)c(Oc2ccc(OC)cc2)c1 [Cpd 10] | – | 936 | – | – | – | – | Ki (Delta Opioid Receptor [1]; [5]): 936 nM; # abdominal stretches (cpd) (mice; 30 mg/kg p.o.): 19; # abdominal stretches (cpd) (mice; 30 mg/kg s.c.): 11; # abdominal stretches (cpd) (mice; 100 mg/kg p.o.): 17.9; # abdominal stretches (cpd) (mice; 300 mg/kg p.o.): 21.2 |
| COc1ccc(Oc2cc(-c3cncc(C#N)c3)ccc2NC[C@@H]2C[C@@H](F)CN2)cc1 [Cpd 24, (2S,4R)-5-[4-[(4-Fluoro-pyrrolidin-2-ylmethyl)-amino]-3-(4-methoxy-phenoxy)-phenyl]-nicotinonitrile] | – | – | 46.1 | 1.0158 | – | 1.01 | – |
| COc1ccc(Oc2cc(-c3cncc(F)c3)ccc2NC[C@@H]2C[C@@H](F)CN2)cc1 [Cpd 25] | – | – | 92.4 | 1.0217 | – | 0.78 | – |
| COc1ccc(Oc2cc(-c3cncc(SC)c3)ccc2NC[C@@H]2C[C@@H](F)CN2)cc1 [Cpd 26] | – | – | 187 | 1.0716 | – | 0.7 | – |
| NC(=O)c1cccc(Oc2cc(-c3ccccc3)ccc2NC[C@@H]2CCCN2)c1 [Cpd 30] | – | 5800 | 1020 | 0.2668 | 36.5 | – | Ki (Delta Opioid Receptor [1]; [5]): 126 nM |
| COc1ccc(Oc2cc(-c3ccccc3)ccc2NC[C@@H]2CCCN2)cc1 [Cpd 35, (S)-[3-(4-Methoxy-phenoxy)-biphenyl-4-yl]-pyrrolidin-2-ylmethyl-amine] | 28.9 | – | – | – | 1 | – | Ki (Mu Opioid Receptor; read-out: μ-binding Ki): > 10000 nM |
| COc1ccc(Oc2cc(-c3cccnc3)ccc2NC[C@@H]2CCCN2)cc1 [Cpd 39] | 22.1 | 3110 | 111 | 0.9245 | 13.4 | – | Ki (Delta Opioid Receptor [4]): 1.65 nM |
| COc1ccc(Oc2cc(-c3cncnc3)ccc2NC[C@@H]2CCCN2)cc1 [Cpd 42] | – | – | – | – | – | 0.39 | Ki (Delta Opioid Receptor [4]; [6]): 1.39 nM |
| COc1ccc(Oc2cc(-c3cncc(F)c3)ccc2NC[C@@H]2CCCN2)cc1 [Cpd 43] | – | – | 218 | 1.0908 | – | 0.43 | Ki (Delta Opioid Receptor [4]): 0.76 nM |
| COc1ccc(Oc2cc(-c3cncc(C#N)c3)ccc2NC[C@@H]2CCCN2)cc1 [Cpd 44] | – | – | – | 1.1554 | – | 0.45 | Ki (Delta Opioid Receptor [4]; [6]): 0.436 nM; EC50 (δ-opioid receptor [2]; read-out: GTPγS δ-opioid receptor EC50): 118 nM |
| Oc1ccc(Oc2cc(-c3cccnc3)ccc2NC[C@@H]2CCCN2)cc1 [Cpd 45, (S)-4-{5-Pyridin-3-yl-2-[(pyrrolidin-2-ylmethyl)-amino]-phenoxy}-phenol] | 5.42 | 4460 | 40.8 | 0.627 | 35.6 | – | – |
| CCN(C[C@@H]1CCCN1)c1ccc(-c2cccnc2)cc1Oc1ccc(OC)cc1 [Cpd 49, (S)-Ethyl-[2-(4-methoxy-phenoxy)-4-pyridin-3-yl-phenyl]-pyrrolidin-2-ylmethyl-amine] | – | – | – | – | – | – | Ki (Delta Opioid Receptor [4]; [6]): 29 nM |
| CCN(C[C@@H]1CCCN1)c1ccc(-c2cncc(F)c2)cc1Oc1ccc(OC)cc1 [Cpd 50] | – | – | – | – | – | – | Ki (Delta Opioid Receptor [4]): 23 nM |
| CCN(C[C@@H]1CCCN1)c1ccc(-c2cncnc2)cc1Oc1ccc(OC)cc1 [Cpd 51] | – | – | – | – | – | – | Ki (Delta Opioid Receptor [4]; [6]): 77 nM |
| CCN(C[C@@H]1CCCN1)c1ccc(-c2cncc(C#N)c2)cc1Oc1ccc(OC)cc1 [Cpd 52] | – | – | – | – | – | – | Ki (Delta Opioid Receptor [4]): 9.33 nM |
| COc1ccc(Oc2ccc(NC[C@@H]3CCCN3)c(Oc3ccc(OC)cc3)c2)cc1 [Cpd 53, (S)-[2,4-Bis-(4-methoxy-phenoxy)-phenyl]-pyrrolidin-2-ylmethyl-amine] | – | – | 319 | – | 28.2 | – | Ki (Delta Opioid Receptor [1]; rat forebrain membranes, ~4 nM [3H]DPDPE, read-out: δ-binding (DPDPE ligand) Ki): 105 nM; Ki (Mu Opioid Receptor; rat forebrain membranes, ~0.8 nM [3H]DAMGO, read-out: μ-binding Ki): > 10000 nM |
| COc1ccc(Oc2ccc(NC3CCCC(N)C3)c(Oc3ccc(OC)cc3)c2)cc1 (centres unmarked) [Cpd 62] | 40.9 | 1640 | 381 | – | 1.73 | – | – |
| CNCCNc1ccc(Oc2ccc(OC)cc2)cc1Oc1ccc(OC)cc1 [Cpd 63, N-[2,4-Bis-(4-methoxy-phenoxy)-phenyl]-N′-methyl-ethane-1,2-diamine] | 23.7 | – | – | – | 26 | – | Ki (Mu Opioid Receptor; read-out: μ-binding Ki): > 10000 nM |
